Our source for the IC50, inhibition and Ki values is ChEMBL document CHEMBL3870348, “Discovery of a new isomannide-based peptidomimetic synthetized by Ugi multicomponent reaction as human tissue kallikrein 1 inhibitor” (Bioorg Med Chem Lett, 2017).

The source made the active and inactive calls. The calls are words filed in the database; no cut-off is given here.

Experiment [1] addresses T1, Kallikrein-7 (Homo sapiens, UniProt P49862). As to the kind of experiment: Inhibition of recombinant human KLK7 expressed in baculovirus/insect cell expression system using Abz-KLYSSKQ-EDDnp peptide as substrate preincubated for 5 mins followed by substrate addition by FRET assay.
Target sequence in this assay (P49862 whole entry): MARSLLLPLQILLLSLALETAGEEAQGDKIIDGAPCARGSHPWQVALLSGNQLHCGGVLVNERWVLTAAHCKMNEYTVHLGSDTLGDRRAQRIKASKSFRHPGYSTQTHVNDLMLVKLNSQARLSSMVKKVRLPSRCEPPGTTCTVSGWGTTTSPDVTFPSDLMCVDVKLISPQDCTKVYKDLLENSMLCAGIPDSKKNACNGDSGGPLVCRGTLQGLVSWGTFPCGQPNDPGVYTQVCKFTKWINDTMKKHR
Experiment [2] has as its target T2, Kallikrein-1 (Homo sapiens, UniProt P06870). As to the kind of experiment: Inhibition of recombinant human KLK1 expressed in baculovirus/insect cell expression system using Abz-KLRSSKQ-EDDnp peptide as substrate preincubated for 5 mins followed by substrate addition by FRET assay.
Target sequence in this assay (P06870 whole entry): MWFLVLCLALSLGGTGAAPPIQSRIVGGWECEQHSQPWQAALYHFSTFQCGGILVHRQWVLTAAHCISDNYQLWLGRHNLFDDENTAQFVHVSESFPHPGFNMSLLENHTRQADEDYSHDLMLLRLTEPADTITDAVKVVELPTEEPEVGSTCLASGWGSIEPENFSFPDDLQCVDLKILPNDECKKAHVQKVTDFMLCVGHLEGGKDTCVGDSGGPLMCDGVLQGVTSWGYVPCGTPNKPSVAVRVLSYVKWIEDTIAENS
Experiment [3] addresses T2, Kallikrein-1. As to the kind of experiment: Inhibition of recombinant human KLK1 expressed in baculovirus/insect cell expression system at 100 uM using Abz-KLRSSKQ-EDDnp peptide as substrate preincubated for 5 mins followed by substrate addition by FRET assay.
Target sequence in this assay (P06870 25-262 limits assumed): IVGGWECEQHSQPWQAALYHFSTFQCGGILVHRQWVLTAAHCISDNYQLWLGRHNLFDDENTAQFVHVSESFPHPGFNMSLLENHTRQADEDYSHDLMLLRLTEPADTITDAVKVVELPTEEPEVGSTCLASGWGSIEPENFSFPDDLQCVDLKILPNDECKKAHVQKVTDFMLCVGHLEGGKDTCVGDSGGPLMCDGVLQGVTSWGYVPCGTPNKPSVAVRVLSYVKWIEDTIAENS
Experiment [4] has as its target T1, Kallikrein-7. As to the kind of experiment: Inhibition of recombinant human KLK7 expressed in baculovirus/insect cell expression system at 100 uM using Abz-KLYSSKQ-EDDnp peptide as substrate preincubated for 5 mins followed by substrate addition by FRET assay.
Target sequence in this assay (P49862 30-253 limits assumed): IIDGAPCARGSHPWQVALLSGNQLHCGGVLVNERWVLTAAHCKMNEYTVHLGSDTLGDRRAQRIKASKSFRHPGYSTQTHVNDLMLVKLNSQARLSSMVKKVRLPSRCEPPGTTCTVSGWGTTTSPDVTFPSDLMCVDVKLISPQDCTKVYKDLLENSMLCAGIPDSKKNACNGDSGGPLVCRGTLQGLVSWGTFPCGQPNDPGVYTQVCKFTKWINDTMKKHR
Experiment [5] has as its target T2, Kallikrein-1. As to the kind of experiment: Competitive inhibition of recombinant human KLK1 expressed in baculovirus/insect cell expression system using Abz-KLRSSKQ-EDDnp peptide as substrate by Dixon plot analysis.
Target sequence in this assay (P06870 whole entry): as the sequence (P06870 whole entry) above
Experiment [6] has as its target T2, Kallikrein-1. The experiment is described as follows: Reversible competitive inhibition of recombinant human KLK1 expressed in baculovirus/insect cell expression system using Abz-KLRSSKQ-EDDnp peptide as substrate at 2 to 8 uM by Lineweaver-Burk plot analysis.
Target sequence in this assay (P06870 25-262 limits assumed): as the sequence (P06870 25-262 limits assumed) above

Take `CC(C)(C(=O)NC1CCCCC1)N(C(=O)Cc1ccc(O)cc1)[C@H]1CO[C@H]2[C@@H]1OC[C@@H]2N(C(=O)Cc1ccc(O)cc1)C(C)(C)C(=O)NC1CCCCC1`: the figures for the IC50 at Kallikrein-7 [1] and on Kallikrein-1 [2] were 133 µM and 12.6 µM, respectively. Besides, the inhibition result at Kallikrein-1 [3] and on Kallikrein-7 [4] was “Active” throughout.
Consider `COc1ccc(CC(=O)N([C@H]2CO[C@H]3[C@@H]2OC[C@H]3OCc2ccccc2)C(C)(C)C(=O)NC2CCCCC2)cc1`, for which the half-inhibitory concentration (IC50) at Kallikrein-7 [1] was 272 µM; on Kallikrein-1 [2], 125 µM. The inhibition result at Kallikrein-1 [3] and on Kallikrein-7 [4] was “Active” in each case.
For `CC(C)(C(=O)NC1CCCCC1)N(C(=O)Cc1ccc(O)cc1)[C@H]1CO[C@H]2[C@@H]1OC[C@H]2OCc1ccccc1`, the Ki at Kallikrein-1 [5] turned out to be 3.1 µM. The half-maximal inhibitory concentration (IC50) at Kallikrein-7 [1] stood at 249 µM; on Kallikrein-1 [2] it was 4 µM. The inhibition entry at Kallikrein-1 [6], on Kallikrein-1 [3] and on Kallikrein-7 [4] was “Active” each time.
As for `CC(C)(C(=O)NC1CCCCC1)N(C(=O)Cc1ccc(F)cc1)[C@H]1CO[C@H]2[C@@H]1OC[C@H]2OCc1ccccc1`, the IC50 on Kallikrein-7 [1] was determined as 185 µM; at Kallikrein-1 [2] it was 221 µM. The inhibition result on Kallikrein-1 [3] and on Kallikrein-7 [4] was “Active” in each case.
As for `CC(C)(C(=O)NC1CCCCC1)N(C(=O)c1ccccc1)[C@H]1CO[C@H]2[C@@H]1OC[C@H]2OCc1ccccc1`, the half-maximal inhibitory concentration (IC50) on Kallikrein-7 [1] was determined as 572 µM; at Kallikrein-1 [2], 400 µM. For the same compound, the inhibition result at Kallikrein-1 [3] and on Kallikrein-7 [4] was “Active” each time.

By IC50 is commonly meant the concentration that gives 50% inhibition. In general, Ki refers to the equilibrium dissociation constant of an inhibitor or competing ligand from its target.
